Consider three compounds from patent US7439077B2, “Coumarin analog compounds for safer anticoagulant treatment” (New Century Pharmaceuticals, Inc., priority 2002, dated 2008).

Values joined by “and” are separate entries in the source; they are usually repeats but may differ in a detail not shown here. Identical values can stand only once. Like-named read-outs stand apart in the source and are kept apart here.

One data set deals with HSA (Homo sapiens, UniProt P02768). The experiment in a line: BIACORE binding to HSA. Conditions: Protein: HSA; for Binding Sites: number of binding sites. The source says:
(§1) In the following examples, Biacore and Animal Study data were obtained with regard to some of the compounds of the present invention, namely NCP 014, 023, 023a.

Data set [1] concerns the target T1, HSA Fragment (Homo sapiens, UniProt P02768, form not given).
T1 construct: HSA Fragment
The experiment in a line: BIACORE binding to HSA Fragment. Conditions: human, HSA fragment, Protein: HSA Fragment; read-out: KD2.
From the text: as §1
A general note: SPR reads the build-up and loss of mass on a sensor chip optically.

In data set [2] the target is T2, HSA Fragment (Homo sapiens, UniProt P02768).
T2 construct: HSA Fragment
T2 sequence (P02768 whole entry, the tested form may be a part): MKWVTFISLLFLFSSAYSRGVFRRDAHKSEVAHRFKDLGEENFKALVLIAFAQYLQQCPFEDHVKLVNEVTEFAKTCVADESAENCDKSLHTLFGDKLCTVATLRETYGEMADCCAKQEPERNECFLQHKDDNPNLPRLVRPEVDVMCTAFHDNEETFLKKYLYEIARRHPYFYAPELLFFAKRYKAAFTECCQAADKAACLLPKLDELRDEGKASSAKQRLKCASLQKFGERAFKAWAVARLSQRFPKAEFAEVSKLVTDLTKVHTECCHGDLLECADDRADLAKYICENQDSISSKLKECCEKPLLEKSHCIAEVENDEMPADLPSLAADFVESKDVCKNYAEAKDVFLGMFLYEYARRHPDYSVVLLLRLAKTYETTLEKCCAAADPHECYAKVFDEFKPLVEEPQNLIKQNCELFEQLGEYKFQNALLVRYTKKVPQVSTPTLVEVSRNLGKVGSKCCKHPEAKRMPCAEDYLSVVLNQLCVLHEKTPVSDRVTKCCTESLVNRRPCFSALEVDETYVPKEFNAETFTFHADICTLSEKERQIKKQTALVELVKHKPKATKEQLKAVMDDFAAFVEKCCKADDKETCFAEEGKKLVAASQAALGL
The experiment in a line: BIACORE binding to HSA Fragment. Conditions: Protein: HSA Fragment; number of binding sites.
From the text: as §1

The next data set addresses Rat Albumin (Rattus norvegicus, UniProt P02770). The data set is described as follows: BIACORE binding to Rat Albumin. Conditions: Protein: Rat Albumin; for Binding Sites: number of binding sites; for Kd: read-out: KD1.
From the text: as §1

Another data set has as its target human serum albumin (Homo sapiens, UniProt P02768). The data set is described as follows: Crystallographic determination of albumin binding site. Conditions: serum albumin binding region observed.

T1 sequence (P02768 whole entry, the tested form may be a part): as above
Sequence of HSA (P02768 25-609): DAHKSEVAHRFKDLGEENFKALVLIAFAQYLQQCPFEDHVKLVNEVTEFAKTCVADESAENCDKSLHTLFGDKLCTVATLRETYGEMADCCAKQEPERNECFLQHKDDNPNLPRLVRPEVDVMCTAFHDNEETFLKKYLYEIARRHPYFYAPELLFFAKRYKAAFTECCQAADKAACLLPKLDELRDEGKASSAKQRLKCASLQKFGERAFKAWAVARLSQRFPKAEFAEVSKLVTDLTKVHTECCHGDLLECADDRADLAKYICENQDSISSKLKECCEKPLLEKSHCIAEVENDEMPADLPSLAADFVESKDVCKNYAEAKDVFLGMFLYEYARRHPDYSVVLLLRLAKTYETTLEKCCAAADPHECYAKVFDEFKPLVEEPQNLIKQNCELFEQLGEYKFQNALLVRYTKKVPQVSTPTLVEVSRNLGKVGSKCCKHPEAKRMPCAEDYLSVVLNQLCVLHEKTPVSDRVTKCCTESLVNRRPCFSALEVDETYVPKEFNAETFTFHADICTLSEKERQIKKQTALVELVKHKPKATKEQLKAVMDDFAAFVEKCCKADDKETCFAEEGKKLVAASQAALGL
Sequence of human serum albumin (P02768 25-609): as above
Sequence of Rat Albumin (P02770 25-608): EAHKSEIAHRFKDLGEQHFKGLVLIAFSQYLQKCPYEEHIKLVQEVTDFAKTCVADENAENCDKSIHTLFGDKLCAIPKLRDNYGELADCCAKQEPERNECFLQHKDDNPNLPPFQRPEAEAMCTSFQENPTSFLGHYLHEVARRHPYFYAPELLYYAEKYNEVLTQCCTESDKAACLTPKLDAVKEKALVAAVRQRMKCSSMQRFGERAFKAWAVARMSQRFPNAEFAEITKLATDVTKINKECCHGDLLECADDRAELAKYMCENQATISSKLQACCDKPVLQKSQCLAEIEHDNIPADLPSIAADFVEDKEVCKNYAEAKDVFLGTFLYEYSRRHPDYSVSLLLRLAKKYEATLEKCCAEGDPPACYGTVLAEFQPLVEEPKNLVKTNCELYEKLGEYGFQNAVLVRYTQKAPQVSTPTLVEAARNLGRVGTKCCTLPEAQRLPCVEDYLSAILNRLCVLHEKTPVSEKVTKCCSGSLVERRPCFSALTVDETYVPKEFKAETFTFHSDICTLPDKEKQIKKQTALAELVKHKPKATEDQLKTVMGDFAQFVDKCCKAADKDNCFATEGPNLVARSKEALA

As for `CCCCCCCCC(CC(C)=O)c1c(O)c2ccccc2oc1=O` (stereo not shown) [NCP 014], the “Binding Sites” value is 2 and 1 on HSA; 2 and 1 at HSA Fragment [2]; 2 at Rat Albumin. Also, the Kd was 0.7 µM and 0.8 µM and 4.6 µM and 6.5 µM at HSA (read-out: KD1); 130 µM on HSA (human, HSA (human serum albumin), read-out: KD2); 97 µM on HSA Fragment [1]; 4.6 µM at Rat Albumin. Moreover, the “albumin binding site (location)” value on human serum albumin was “bind at the IB binding site, and in addition in the IIA binding site, but at a location different than the major site wherein sodium warfarin binds to albumin”.

On to `CC(=O)CC(Cc1ccccc1)c1c(O)c2ccccc2oc1=O` (stereo not shown) [NCP 023], for which, at HSA, the “Binding Sites” value is 2 and 1. For the same compound, the Kd at HSA (read-out: KD2) was 112 µM and 160 µM; on HSA Fragment [1], 220 µM; at Rat Albumin, 85 µM. The “albumin binding site (location)” value on human serum albumin was “bind at the IB site of serum albumin unique from the IB endogenous long-chain fatty acid site”.

On to `CC(=O)CC(Cc1ccc(Cl)cc1)c1c(O)c2ccccc2oc1=O` (stereo not shown) [NCP 023a], for which the “Binding Sites” value on HSA was 1 and 2; at Rat Albumin it was 2. Also, the Kd is 40 µM on HSA (read-out: KD2), 50 µM on HSA Fragment [1] and 11.8 µM on Rat Albumin. For the same compound, the “albumin binding site (location)” value on human serum albumin was “bind at the IB site of serum albumin unique from the IB endogenous long-chain fatty acid site”.
